Tested on: BALB 3T3/H-ras
Test: BALB 3T3/H-ras inhibition activity
Assay type: cell-based

## CC(C)C(C)CC[C@@H](C)C1CCN=C2C3=C(CC[C@@]21C)[C@@]1(C)CC[C@H](O)CC1CC3 (stereo partly shown) [UCA1064-B]
  BALB 3T3/H-ras Inhibition Activity IC50: 3.5 µg/mL
